Test results from the NIST ThermoML archive (doi:10.1021/je500420g).
± gives the expanded uncertainty stated by the source.

Assay: xn = mol fraction of the nth substance listed
Details: 100 kPa, Liquid, Vibrating tube method

[I-].[Li+] [lithium iodide] + O
mass density (293.15 K, x1 = 0.01): 1053.3 ± 0.2 kg/m3 | mass density (293.15 K, x1 = 0.03): 1160.8 ± 0.3 kg/m3 | mass density (293.15 K, x1 = 0.05): 1268.1 ± 0.4 kg/m3 | mass density (303.15 K, x1 = 0.01): 1049.8 ± 0.2 kg/m3 | mass density (303.15 K, x1 = 0.03): 1156.3 ± 0.3 kg/m3 | mass density (303.15 K, x1 = 0.05): 1262.7 ± 0.4 kg/m3 | mass density (313.15 K, x1 = 0.01): 1045.7 ± 0.2 kg/m3 | mass density (313.15 K, x1 = 0.03): 1151 ± 0.3 kg/m3 | mass density (313.15 K, x1 = 0.05): 1257.2 ± 0.4 kg/m3 | mass density (323.15 K, x1 = 0.01): 1041.2 ± 0.2 kg/m3 | mass density (323.15 K, x1 = 0.03): 1146.1 ± 0.3 kg/m3 | mass density (323.15 K, x1 = 0.05): 1251.4 ± 0.4 kg/m3 | mass density (333.15 K, x1 = 0.01): 1036.2 ± 0.2 kg/m3 | mass density (333.15 K, x1 = 0.03): 1140.7 ± 0.3 kg/m3 | mass density (333.15 K, x1 = 0.05): 1245.5 ± 0.4 kg/m3

[Br-].[K+] [potassium bromide] + O
mass density (293.15 K, x1 = 0.01): 1045.7 ± 0.2 kg/m3 | mass density (293.15 K, x1 = 0.03): 1137.7 ± 0.3 kg/m3 | mass density (293.15 K, x1 = 0.05): 1227.4 ± 0.3 kg/m3 | mass density (303.15 K, x1 = 0.01): 1042.6 ± 0.2 kg/m3 | mass density (303.15 K, x1 = 0.03): 1133.7 ± 0.3 kg/m3 | mass density (303.15 K, x1 = 0.05): 1222.6 ± 0.3 kg/m3 | mass density (313.15 K, x1 = 0.01): 1038.7 ± 0.2 kg/m3 | mass density (313.15 K, x1 = 0.03): 1129.1 ± 0.3 kg/m3 | mass density (313.15 K, x1 = 0.05): 1217.4 ± 0.3 kg/m3 | mass density (323.15 K, x1 = 0.01): 1034.2 ± 0.2 kg/m3 | mass density (323.15 K, x1 = 0.03): 1123.9 ± 0.3 kg/m3 | mass density (323.15 K, x1 = 0.05): 1211.7 ± 0.3 kg/m3 | mass density (333.15 K, x1 = 0.01): 1029.2 ± 0.2 kg/m3 | mass density (333.15 K, x1 = 0.03): 1118.4 ± 0.3 kg/m3 | mass density (333.15 K, x1 = 0.05): 1205.7 ± 0.3 kg/m3

[Cl-].[K+] [potassium chloride] + O
mass density (293.15 K, x1 = 0.01): 1024.3 ± 0.2 kg/m3 | mass density (293.15 K, x1 = 0.03): 1074.8 ± 0.2 kg/m3 | mass density (293.15 K, x1 = 0.05): 1123.6 ± 0.3 kg/m3 | mass density (303.15 K, x1 = 0.01): 1021.4 ± 0.2 kg/m3 | mass density (303.15 K, x1 = 0.03): 1071.2 ± 0.2 kg/m3 | mass density (303.15 K, x1 = 0.05): 1119.6 ± 0.3 kg/m3 | mass density (313.15 K, x1 = 0.01): 1017.7 ± 0.2 kg/m3 | mass density (313.15 K, x1 = 0.03): 1067 ± 0.2 kg/m3 | mass density (313.15 K, x1 = 0.05): 1115.1 ± 0.3 kg/m3 | mass density (323.15 K, x1 = 0.01): 1013.3 ± 0.2 kg/m3 | mass density (323.15 K, x1 = 0.03): 1062.4 ± 0.2 kg/m3 | mass density (323.15 K, x1 = 0.05): 1110.2 ± 0.3 kg/m3 | mass density (333.15 K, x1 = 0.01): 1008.4 ± 0.2 kg/m3 | mass density (333.15 K, x1 = 0.03): 1057.2 ± 0.3 kg/m3 | mass density (333.15 K, x1 = 0.05): 1104.9 ± 0.3 kg/m3

[F-].[K+] [potassium fluoride] + O
mass density (293.15 K, x1 = 0.01): 1025.7 ± 0.2 kg/m3 | mass density (293.15 K, x1 = 0.03): 1080.5 ± 0.2 kg/m3 | mass density (293.15 K, x1 = 0.05): 1135.5 ± 0.3 kg/m3 | mass density (303.15 K, x1 = 0.01): 1022.8 ± 0.2 kg/m3 | mass density (303.15 K, x1 = 0.03): 1077 ± 0.2 kg/m3 | mass density (303.15 K, x1 = 0.05): 1130.7 ± 0.3 kg/m3 | mass density (313.15 K, x1 = 0.01): 1019.2 ± 0.2 kg/m3 | mass density (313.15 K, x1 = 0.03): 1072.9 ± 0.2 kg/m3 | mass density (313.15 K, x1 = 0.05): 1126.5 ± 0.3 kg/m3 | mass density (323.15 K, x1 = 0.01): 1014.8 ± 0.2 kg/m3 | mass density (323.15 K, x1 = 0.03): 1068.4 ± 0.2 kg/m3 | mass density (323.15 K, x1 = 0.05): 1121.9 ± 0.3 kg/m3 | mass density (333.15 K, x1 = 0.01): 1010 ± 0.2 kg/m3 | mass density (333.15 K, x1 = 0.03): 1063.5 ± 0.2 kg/m3 | mass density (333.15 K, x1 = 0.05): 1116.9 ± 0.3 kg/m3

[I-].[K+] [potassium iodide] + O
mass density (293.15 K, x1 = 0.01): 1065.2 ± 0.2 kg/m3 | mass density (293.15 K, x1 = 0.03): 1194 ± 0.3 kg/m3 | mass density (293.15 K, x1 = 0.05): 1317.9 ± 0.4 kg/m3 | mass density (303.15 K, x1 = 0.01): 1061.9 ± 0.2 kg/m3 | mass density (303.15 K, x1 = 0.03): 1189.3 ± 0.3 kg/m3 | mass density (303.15 K, x1 = 0.05): 1312.1 ± 0.4 kg/m3 | mass density (313.15 K, x1 = 0.01): 1057.9 ± 0.2 kg/m3 | mass density (313.15 K, x1 = 0.03): 1184.1 ± 0.3 kg/m3 | mass density (313.15 K, x1 = 0.05): 1306 ± 0.4 kg/m3 | mass density (323.15 K, x1 = 0.01): 1053.2 ± 0.2 kg/m3 | mass density (323.15 K, x1 = 0.03): 1178.4 ± 0.3 kg/m3 | mass density (323.15 K, x1 = 0.05): 1299.3 ± 0.4 kg/m3 | mass density (333.15 K, x1 = 0.01): 1047.9 ± 0.2 kg/m3 | mass density (333.15 K, x1 = 0.03): 1172.3 ± 0.3 kg/m3 | mass density (333.15 K, x1 = 0.05): 1292.4 ± 0.4 kg/m3

[Br-].[Rb+] [rubidium bromide] + O
mass density (293.15 K, x1 = 0.01): 1068.6 ± 0.2 kg/m3 | mass density (293.15 K, x1 = 0.03): 1204.6 ± 0.3 kg/m3 | mass density (293.15 K, x1 = 0.05): 1336.9 ± 0.4 kg/m3 | mass density (303.15 K, x1 = 0.01): 1065 ± 0.2 kg/m3 | mass density (303.15 K, x1 = 0.03): 1199.7 ± 0.3 kg/m3 | mass density (303.15 K, x1 = 0.05): 1331 ± 0.4 kg/m3 | mass density (313.15 K, x1 = 0.01): 1060.7 ± 0.2 kg/m3 | mass density (313.15 K, x1 = 0.03): 1194.5 ± 0.3 kg/m3 | mass density (313.15 K, x1 = 0.05): 1324.9 ± 0.4 kg/m3 | mass density (323.15 K, x1 = 0.01): 1056 ± 0.2 kg/m3 | mass density (323.15 K, x1 = 0.03): 1188.9 ± 0.3 kg/m3 | mass density (323.15 K, x1 = 0.05): 1318.6 ± 0.4 kg/m3 | mass density (333.15 K, x1 = 0.01): 1050.9 ± 0.2 kg/m3 | mass density (333.15 K, x1 = 0.03): 1182.9 ± 0.3 kg/m3 | mass density (333.15 K, x1 = 0.05): 1312.2 ± 0.4 kg/m3

[Cl-].[Rb+] [rubidium chloride] + O
mass density (293.15 K, x1 = 0.01): 1048.3 ± 0.2 kg/m3 | mass density (293.15 K, x1 = 0.03): 1144.2 ± 0.3 kg/m3 | mass density (293.15 K, x1 = 0.05): 1237.9 ± 0.3 kg/m3 | mass density (303.15 K, x1 = 0.01): 1044.8 ± 0.2 kg/m3 | mass density (303.15 K, x1 = 0.03): 1139.8 ± 0.3 kg/m3 | mass density (303.15 K, x1 = 0.05): 1232.8 ± 0.3 kg/m3 | mass density (313.15 K, x1 = 0.01): 1040.7 ± 0.2 kg/m3 | mass density (313.15 K, x1 = 0.03): 1135 ± 0.3 kg/m3 | mass density (313.15 K, x1 = 0.05): 1227.5 ± 0.3 kg/m3 | mass density (323.15 K, x1 = 0.01): 1036.1 ± 0.2 kg/m3 | mass density (323.15 K, x1 = 0.03): 1130 ± 0.3 kg/m3 | mass density (323.15 K, x1 = 0.05): 1222 ± 0.3 kg/m3 | mass density (333.15 K, x1 = 0.01): 1031.2 ± 0.2 kg/m3 | mass density (333.15 K, x1 = 0.03): 1124.7 ± 0.3 kg/m3 | mass density (333.15 K, x1 = 0.05): 1216.3 ± 0.3 kg/m3
